Target: LRRK2 protein (SEQ ID NO:2) (Homo sapiens, UniProt Q5S007)
Assay: Drug Pull-Down experiments
Assay type: binding
Protocol: The pharmacological properties of the LRRK2 modulating agents can be evaluated, for example, in Drug Pull-Down experiments. The above-mentioned heterocyclic compounds can show activity in Drug Pull-Down experiments at concentrations below 20 μM.

LRRK2 protein (SEQ ID NO:2), sequence (Q5S007 whole entry R50H/L212S): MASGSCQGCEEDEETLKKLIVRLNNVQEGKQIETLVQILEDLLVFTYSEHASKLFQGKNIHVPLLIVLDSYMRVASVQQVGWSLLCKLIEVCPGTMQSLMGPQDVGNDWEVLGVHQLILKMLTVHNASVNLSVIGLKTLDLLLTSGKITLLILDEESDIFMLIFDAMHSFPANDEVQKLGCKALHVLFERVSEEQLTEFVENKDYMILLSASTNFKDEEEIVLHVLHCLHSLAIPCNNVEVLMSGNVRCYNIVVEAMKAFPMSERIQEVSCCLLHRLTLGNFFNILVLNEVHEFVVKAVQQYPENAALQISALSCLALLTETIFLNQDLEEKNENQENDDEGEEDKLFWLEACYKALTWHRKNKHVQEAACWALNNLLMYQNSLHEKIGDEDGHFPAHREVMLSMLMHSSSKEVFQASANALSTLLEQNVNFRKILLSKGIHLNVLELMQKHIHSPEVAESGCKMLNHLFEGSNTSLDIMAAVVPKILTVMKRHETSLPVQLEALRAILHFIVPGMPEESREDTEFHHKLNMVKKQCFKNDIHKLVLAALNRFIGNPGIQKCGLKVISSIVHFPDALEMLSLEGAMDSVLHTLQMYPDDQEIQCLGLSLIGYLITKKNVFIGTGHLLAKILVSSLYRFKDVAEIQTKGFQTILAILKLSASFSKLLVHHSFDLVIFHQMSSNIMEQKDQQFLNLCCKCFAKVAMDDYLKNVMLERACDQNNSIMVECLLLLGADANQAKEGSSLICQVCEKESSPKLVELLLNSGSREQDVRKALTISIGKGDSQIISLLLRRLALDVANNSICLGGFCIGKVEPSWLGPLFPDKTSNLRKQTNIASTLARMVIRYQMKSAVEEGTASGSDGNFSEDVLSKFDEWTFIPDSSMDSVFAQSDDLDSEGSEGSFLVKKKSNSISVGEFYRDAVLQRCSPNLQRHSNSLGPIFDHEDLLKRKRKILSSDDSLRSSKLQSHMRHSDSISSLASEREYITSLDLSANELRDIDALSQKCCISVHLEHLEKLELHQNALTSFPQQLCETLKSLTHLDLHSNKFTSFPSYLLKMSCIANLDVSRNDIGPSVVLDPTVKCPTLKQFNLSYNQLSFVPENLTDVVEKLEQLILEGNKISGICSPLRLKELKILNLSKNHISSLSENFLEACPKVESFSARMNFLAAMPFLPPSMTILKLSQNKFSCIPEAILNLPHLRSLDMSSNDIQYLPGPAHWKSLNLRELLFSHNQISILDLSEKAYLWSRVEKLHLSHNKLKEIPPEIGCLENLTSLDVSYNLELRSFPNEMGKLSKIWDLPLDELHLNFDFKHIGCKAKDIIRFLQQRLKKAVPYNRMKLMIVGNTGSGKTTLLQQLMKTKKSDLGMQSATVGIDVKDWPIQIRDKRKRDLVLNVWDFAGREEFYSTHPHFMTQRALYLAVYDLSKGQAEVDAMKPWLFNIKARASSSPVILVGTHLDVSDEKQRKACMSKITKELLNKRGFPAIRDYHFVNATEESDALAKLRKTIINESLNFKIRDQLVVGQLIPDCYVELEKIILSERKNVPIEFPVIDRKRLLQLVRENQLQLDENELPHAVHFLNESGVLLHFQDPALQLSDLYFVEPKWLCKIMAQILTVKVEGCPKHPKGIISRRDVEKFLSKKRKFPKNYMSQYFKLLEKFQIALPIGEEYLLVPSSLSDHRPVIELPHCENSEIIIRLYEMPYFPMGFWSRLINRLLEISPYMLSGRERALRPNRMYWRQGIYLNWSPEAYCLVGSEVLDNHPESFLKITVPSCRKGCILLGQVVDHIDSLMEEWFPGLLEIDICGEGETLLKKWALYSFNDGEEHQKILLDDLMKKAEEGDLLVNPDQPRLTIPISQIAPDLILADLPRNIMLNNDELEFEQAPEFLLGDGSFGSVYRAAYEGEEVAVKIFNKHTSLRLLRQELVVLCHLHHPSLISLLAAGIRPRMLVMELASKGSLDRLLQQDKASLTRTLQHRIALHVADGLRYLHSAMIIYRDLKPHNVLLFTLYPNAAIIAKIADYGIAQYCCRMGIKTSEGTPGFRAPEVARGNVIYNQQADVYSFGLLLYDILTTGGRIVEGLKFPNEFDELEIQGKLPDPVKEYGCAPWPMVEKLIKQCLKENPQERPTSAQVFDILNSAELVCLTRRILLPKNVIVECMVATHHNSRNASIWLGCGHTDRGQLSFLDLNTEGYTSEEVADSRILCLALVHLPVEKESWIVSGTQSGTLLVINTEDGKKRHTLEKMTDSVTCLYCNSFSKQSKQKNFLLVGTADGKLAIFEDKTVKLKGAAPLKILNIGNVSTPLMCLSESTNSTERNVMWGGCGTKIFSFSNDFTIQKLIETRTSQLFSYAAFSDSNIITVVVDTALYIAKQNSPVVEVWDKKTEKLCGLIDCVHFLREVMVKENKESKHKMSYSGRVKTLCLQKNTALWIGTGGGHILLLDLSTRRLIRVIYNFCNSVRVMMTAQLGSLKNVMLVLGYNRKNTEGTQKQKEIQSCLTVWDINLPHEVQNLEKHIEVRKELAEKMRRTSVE

- IC50: ~1 µM
Compound: Cc1[nH]c(/C=C2\C(=O)Nc3ccccc32)c(C)c1CCC(=O)O [Compound 12]

— US20100035251A1, “BioMarkers for the Progression of Alzheimer's Disease” (priority 2006, published 2010)
